This assay has as its target T1, Type I Ins(1,4,5)P3 5-phosphatase (Homo sapiens, UniProt Q14642).
T1 sequence (Q14642 1-412 limits assumed): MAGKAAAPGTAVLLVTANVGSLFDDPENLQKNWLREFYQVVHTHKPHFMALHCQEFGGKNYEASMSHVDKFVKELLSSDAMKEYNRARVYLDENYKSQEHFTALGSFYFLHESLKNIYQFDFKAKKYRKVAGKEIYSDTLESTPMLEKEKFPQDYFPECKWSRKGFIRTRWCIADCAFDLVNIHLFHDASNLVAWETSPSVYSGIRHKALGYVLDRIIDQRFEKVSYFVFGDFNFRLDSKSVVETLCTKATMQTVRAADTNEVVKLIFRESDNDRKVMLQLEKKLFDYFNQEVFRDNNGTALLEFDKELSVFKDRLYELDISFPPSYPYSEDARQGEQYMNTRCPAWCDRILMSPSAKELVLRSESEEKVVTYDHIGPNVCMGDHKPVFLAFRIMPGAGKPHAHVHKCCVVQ
As to the kind of experiment: [3H]Ins. Type of assay: biochemical.

The text below walks through data of paper PMC2666327 (Chembiochem : a European journal of chemical biology, 2008).

The IC50 is the concentration that gives 50% inhibition. Low values mean higher potency, high ones lower potency.

On to `O=P(O)(O)Oc1ccc(OP(=O)(O)O)c(OP(=O)(O)O)c1OCc1ccccc1` [compound 30, 3-benzyloxybenzene 1,2,4-trisphosphate], for which the IC50 stood at 68 ± 16 µM.
